Results on four molecules are retold here after US10213436B2, “Methods of treating cancer using aurora kinase inhibitors” (Millennium Pharmaceuticals, Inc., priority 2012, dated 2019).

Structures are written as SMILES. Read-outs that look alike come from different tables or passages of the source.

A short description of data set [1]: Single agent maximum tolerated dose in mice.
Data set [2] relates to NCI-H69. As to the kind of experiment: NCI-H69 small cell lung cancer xenograft model.
Experimental: Procedure. […] Treatments began when tumors reached approximately 200 mm^3 following subcutaneous tumor implantation with NCI-H69 tumor fragments for all groups containing 10 female immunocompromised nu/nu mice per group. MLN8237 was tested at a dose of 20 mg/kg administered PO on a QIDx21-Q8Hx2 schedule and at doses of 20 and 10 mg/kg on a QIDx21 schedule. Paclitaxel was tested at doses of 30 and 15 mg/kg administered IV on a Q7Dx3 schedule. Each paclitaxel dose was combined with each MLN8237 dose on the QDx21 treatment schedule. In the combination treatment groups MLN8237 was administered first to the animals, followed immediately by the administration of paclitaxel. One group served as a vehicle-treated control group receiving PO treatment with the MLN8237 vehicle on a QIDx21 schedule.
Data set [3] has as its system NCI-H82. Nature of the data set: NCI-H82 small cell lung cancer xenograft model.
For data set [4] the following is noted: mouse, in vivo.
The test system of data set [5] is cells. To be noted: cells treated with MLN8054; cited from earlier work.

`CC[C@@]1(O)C(=O)OCc2c1cc1n(c2=O)Cc2cc3c(CN(C)C)c(O)ccc3nc2-1` [topotecan]: the “single agent maximum tolerated dose” value in data set [1] (IV) is given as 1.5 mg/kg Q5D.

On to `CC(=O)O[C@H]1C(=O)[C@@]2(C)[C@H]([C@H](OC(=O)c3ccccc3)[C@]3(O)C[C@H](OC(=O)[C@H](O)[C@@H](NC(=O)c4ccccc4)c4ccccc4)C(C)=C1C3(C)C)[C@]1(OC(C)=O)CO[C@@H]1C[C@@H]2O` [paclitaxel], for which the “single agent maximum tolerated dose in mice” value in data set [1] was 30 mg/kg QD. The results for the antitumor activity result in data set [2] (single agent paclitaxel 30 mg/kg (maximum tolerated dose)) and in data set [3] (single agent paclitaxel 15 mg/kg QW) were “sustained cures” and “no antitumor activity”, respectively.

As to `COc1cc(Nc2ncc3c(n2)-c2ccc(Cl)cc2C(c2c(F)cccc2OC)=NC3)ccc1C(=O)[O-].O.[Na+]` [alisertib, sodium 4-{[9-chloro-7-(2-fluoro-6-methoxyphenyl)-5H-pyrimido[5,4-d][2]benzazepin-2-yl]amino}-2-methoxybenzoate monohydrate], the “single agent maximum tolerated dose in mice” value in data set [4] came to 20 mg/kg BID. The antitumor activity result in data set [2] (single agent alisertib 20 mg/kg BID (maximum tolerated dose)) is listed as “prolonged regressions”; in data set [3] (single agent alisertib 10 mg/kg QD), “no antitumor activity”.

Regarding `O=C(O)c1ccc(Nc2ncc3c(n2)-c2ccc(Cl)cc2C(c2c(F)cccc2F)=NC3)cc1` [MLN8054], in data set [5], the “cell fate after repeated defective mitotic divisions” value is reported as “undergo senescence” and the “chromosome content of treated cells” value is reported as “develop aneuploidy that increases over time”.
